Test results from ChEMBL document CHEMBL5233206, “An overview on the synthesis of carbohydrate-based molecules with biological activity related to neurodegenerative diseases” (RSC Med Chem, 2021).

How the values were obtained:
Acetylcholinesterase [1] = target: T1, Acetylcholinesterase (Electrophorus electricus, UniProt O42275)
Description: Binding affinity to electrical eel AChE assessed as inhibition constant incubated for 20 mins by absorbance based analysis

Cholinesterase [2] = target: T2, Cholinesterase (Homo sapiens, UniProt P06276)
Acetylcholinesterase [3] = target: T3, Acetylcholinesterase (Mus musculus, UniProt P21836); experiment: Inhibition of mouse brain AChE; assay type: tissue-based
T3 sequence (P21836 whole entry): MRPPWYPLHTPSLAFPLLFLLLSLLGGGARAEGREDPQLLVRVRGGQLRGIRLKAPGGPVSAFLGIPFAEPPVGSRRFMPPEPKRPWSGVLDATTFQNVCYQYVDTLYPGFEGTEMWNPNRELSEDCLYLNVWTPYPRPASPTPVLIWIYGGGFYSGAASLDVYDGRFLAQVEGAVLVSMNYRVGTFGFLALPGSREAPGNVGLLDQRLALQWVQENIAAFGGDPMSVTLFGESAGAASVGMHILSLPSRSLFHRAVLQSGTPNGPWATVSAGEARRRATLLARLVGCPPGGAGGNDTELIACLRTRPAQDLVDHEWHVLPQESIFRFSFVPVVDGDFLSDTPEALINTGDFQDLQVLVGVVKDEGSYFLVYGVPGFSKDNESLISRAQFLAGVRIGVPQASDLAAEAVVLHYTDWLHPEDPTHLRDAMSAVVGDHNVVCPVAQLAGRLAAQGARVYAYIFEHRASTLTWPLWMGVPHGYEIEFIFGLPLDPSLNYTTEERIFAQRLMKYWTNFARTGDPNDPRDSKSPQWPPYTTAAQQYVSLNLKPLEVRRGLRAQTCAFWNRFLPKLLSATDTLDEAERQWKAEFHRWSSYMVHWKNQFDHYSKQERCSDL

Cholinesterase [4] = target: Cholinesterase (Mus musculus, UniProt Q03311); experiment: Inhibition of mouse serum BuChE; assay type: cell-free
Sequence of Cholinesterase (Mus musculus, UniProt Q03311) (Q03311 whole entry): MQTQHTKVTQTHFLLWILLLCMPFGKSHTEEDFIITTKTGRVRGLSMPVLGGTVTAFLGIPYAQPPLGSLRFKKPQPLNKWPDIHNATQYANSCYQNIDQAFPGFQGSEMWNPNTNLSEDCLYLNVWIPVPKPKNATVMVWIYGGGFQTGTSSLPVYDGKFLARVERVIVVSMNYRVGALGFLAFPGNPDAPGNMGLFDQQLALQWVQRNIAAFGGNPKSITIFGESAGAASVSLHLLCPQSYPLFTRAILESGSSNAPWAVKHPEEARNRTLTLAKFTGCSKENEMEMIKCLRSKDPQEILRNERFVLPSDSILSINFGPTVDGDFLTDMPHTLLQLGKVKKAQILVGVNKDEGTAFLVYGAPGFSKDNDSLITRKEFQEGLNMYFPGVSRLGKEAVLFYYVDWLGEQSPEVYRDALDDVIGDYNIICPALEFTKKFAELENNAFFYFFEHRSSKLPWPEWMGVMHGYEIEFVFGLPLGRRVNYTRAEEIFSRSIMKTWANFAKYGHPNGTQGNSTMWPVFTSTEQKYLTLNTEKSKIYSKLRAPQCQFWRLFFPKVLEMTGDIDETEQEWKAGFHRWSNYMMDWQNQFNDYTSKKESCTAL

Cholinesterase [5] = target: T4, Cholinesterase (Equus caballus, UniProt P81908); experiment: Binding affinity to horse serum BuChE using ATCh-iodide as substrate by ellman's method
T4 sequence (P81908 whole entry): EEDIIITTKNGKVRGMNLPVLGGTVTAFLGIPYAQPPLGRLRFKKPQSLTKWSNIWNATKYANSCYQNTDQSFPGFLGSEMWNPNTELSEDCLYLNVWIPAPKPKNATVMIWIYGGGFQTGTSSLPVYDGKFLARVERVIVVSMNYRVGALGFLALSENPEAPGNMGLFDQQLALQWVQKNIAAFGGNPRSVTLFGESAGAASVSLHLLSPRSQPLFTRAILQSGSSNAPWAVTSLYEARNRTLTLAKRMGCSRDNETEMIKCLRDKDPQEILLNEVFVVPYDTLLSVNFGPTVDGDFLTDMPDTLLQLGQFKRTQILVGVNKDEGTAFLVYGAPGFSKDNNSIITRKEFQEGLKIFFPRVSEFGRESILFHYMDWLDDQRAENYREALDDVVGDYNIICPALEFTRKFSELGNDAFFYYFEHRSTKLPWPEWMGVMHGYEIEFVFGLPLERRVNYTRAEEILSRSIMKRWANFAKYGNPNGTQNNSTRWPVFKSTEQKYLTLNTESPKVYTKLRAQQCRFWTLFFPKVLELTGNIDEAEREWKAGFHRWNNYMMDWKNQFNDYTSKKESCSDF

[6] = Lipophilicity, logP of the compound; assay type: physicochemical; settings: octanol/water
Cholinesterase [7] = target: T4, Cholinesterase
Description: Inhibition of equine serum BuChE by ellman's method

Cholinesterase [8] = target: T2, Cholinesterase; experiment: Binding affinity to BuChE (unknown origin) assessed as inhibition constant by ellman's method
Homo sapiens = species on record: Homo sapiens; experiment: Selectivity ratio of IC50 for AChE (unknown origin) to IC50 for BuChE (unknown origin)
Acetylcholinesterase [9] = target: T1, Acetylcholinesterase; experiment: Inhibition of electrical eel AChE by ellman's method
Acetylcholinesterase [10] = target: T5, Acetylcholinesterase (Homo sapiens, UniProt P22303)
T5 sequence (P22303 whole entry): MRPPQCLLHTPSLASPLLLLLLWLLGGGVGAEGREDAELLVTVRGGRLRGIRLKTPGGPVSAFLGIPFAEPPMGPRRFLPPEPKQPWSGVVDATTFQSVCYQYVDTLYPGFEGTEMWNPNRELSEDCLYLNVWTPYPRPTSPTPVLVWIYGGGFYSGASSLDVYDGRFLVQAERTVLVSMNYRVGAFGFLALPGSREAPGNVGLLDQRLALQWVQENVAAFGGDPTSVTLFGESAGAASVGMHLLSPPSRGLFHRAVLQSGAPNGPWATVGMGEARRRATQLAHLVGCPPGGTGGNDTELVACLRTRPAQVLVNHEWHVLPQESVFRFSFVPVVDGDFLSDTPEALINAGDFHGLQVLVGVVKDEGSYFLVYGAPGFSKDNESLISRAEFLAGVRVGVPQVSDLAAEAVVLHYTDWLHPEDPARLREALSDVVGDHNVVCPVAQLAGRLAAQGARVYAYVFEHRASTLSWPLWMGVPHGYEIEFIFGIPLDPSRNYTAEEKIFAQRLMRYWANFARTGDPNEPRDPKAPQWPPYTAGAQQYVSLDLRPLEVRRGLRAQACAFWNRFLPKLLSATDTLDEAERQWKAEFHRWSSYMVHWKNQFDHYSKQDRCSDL
Description: Binding affinity to AChE (unknown origin) assessed as inhibition constant incubated for 30 mins by ellman's method

Cholinesterase [11] = target: T2, Cholinesterase; remark: listed apart in the source
Description: Binding affinity to BuChE (unknown origin) assessed as inhibition constant incubated for 30 mins by ellman's method

Acetylcholinesterase [12] = target: T5, Acetylcholinesterase; experiment: Inhibition of AChE (unknown origin)
[13] = Antioxidant activity assessed as ABTS radical scavenging activity; assay type: functional
Cholinesterase [14] = target: T2, Cholinesterase; experiment: Binding affinity to BuChE (unknown origin) assessed as inhibition constant incubated for 20 mins by absorbance based analysis
Cholinesterase [15] = target: T2, Cholinesterase; experiment: Inhibition of BuChE (unknown origin) at 50 uM incubated for 20 mins by absorbance based analysis relative to control
Acetylcholinesterase [16] = target: T5, Acetylcholinesterase; experiment: Inhibition of AChE (unknown origin) at 50 uM incubated for 20 mins by absorbance based analysis relative to control

T2 sequence (P06276 whole entry): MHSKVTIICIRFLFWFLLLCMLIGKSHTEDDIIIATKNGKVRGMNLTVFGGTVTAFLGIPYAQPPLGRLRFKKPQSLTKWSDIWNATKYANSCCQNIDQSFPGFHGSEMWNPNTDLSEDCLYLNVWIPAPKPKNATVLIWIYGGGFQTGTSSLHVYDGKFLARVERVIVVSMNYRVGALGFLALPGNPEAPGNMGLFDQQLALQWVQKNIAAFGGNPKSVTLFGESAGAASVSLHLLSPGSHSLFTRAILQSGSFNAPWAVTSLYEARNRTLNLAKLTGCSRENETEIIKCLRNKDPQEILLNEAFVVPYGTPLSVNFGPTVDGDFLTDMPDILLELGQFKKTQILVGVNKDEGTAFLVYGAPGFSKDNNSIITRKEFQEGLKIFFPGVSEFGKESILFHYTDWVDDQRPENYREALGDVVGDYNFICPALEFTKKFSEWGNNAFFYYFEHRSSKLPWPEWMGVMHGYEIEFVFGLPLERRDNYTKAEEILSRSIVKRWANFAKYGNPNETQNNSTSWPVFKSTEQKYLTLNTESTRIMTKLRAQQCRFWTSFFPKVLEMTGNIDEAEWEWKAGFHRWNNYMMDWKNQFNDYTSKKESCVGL
T1 sequence (O42275 whole entry): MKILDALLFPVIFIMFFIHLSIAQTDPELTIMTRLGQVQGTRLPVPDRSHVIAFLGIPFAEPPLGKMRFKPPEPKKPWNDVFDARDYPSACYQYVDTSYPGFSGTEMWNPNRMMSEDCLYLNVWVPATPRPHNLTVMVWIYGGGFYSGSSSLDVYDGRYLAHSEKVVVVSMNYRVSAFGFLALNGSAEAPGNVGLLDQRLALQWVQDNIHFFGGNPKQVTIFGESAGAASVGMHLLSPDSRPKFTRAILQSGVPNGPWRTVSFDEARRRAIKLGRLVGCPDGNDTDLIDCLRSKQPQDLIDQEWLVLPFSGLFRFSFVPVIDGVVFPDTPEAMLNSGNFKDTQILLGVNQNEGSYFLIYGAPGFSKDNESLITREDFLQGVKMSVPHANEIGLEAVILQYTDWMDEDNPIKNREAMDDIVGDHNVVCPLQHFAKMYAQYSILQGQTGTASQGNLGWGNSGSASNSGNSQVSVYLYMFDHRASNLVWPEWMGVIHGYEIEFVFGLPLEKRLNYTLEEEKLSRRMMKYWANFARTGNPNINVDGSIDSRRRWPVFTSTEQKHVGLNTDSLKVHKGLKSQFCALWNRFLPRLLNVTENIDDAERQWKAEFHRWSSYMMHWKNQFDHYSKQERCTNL

For `CCCCCCCCCCCCNC(=O)[C@@H](OCc1ccccc1)[C@H]1OC(n2cc(-c3ccccc3)nn2)[C@H](OC(C)=O)[C@H]1OC(C)=O` (some centres undefined), the Ki (Acetylcholinesterase [1]) was 9.5 µM.

Work on `CO[C@H]1O[C@H](Cn2c(=O)c3c(ncn3C)n(C)c2=O)[C@@H](OC(C)=O)[C@H](OC(C)=O)[C@H]1OC(C)=O` yielded a Ki (Acetylcholinesterase [1]) of 4.3 µM and a Ki (Cholinesterase [2]) of 4 µM.

Molecule `CC1(C)O[C@H]2O[C@H](CNCCCCCCCCNc3c4c(nc5ccccc35)CCCC4)[C@H](O)[C@H]2O1` has an IC50 (Acetylcholinesterase [3]) of 0.084 µM and an IC50 (Cholinesterase [4]) of 0.011 µM.

Work on `CC(=O)O[C@H]1C(NS(C)(=O)=O)O[C@H](Cn2c(=O)c3c(ncn3C)n(C)c2=O)[C@@H]1OCc1ccccc1` (some centres undefined) yielded a Ki (Acetylcholinesterase [1]) of 6.61 µM.

For `COC1O[C@H](Cn2ccc(=O)[nH]c2=O)[C@@H](OCc2ccccc2)[C@H](OCc2ccccc2)[C@H]1OCc1ccccc1` (some centres undefined), the Ki (Cholinesterase [2]) was less than 100 µM.

`OC[C@H]1O[C@@H](OCCn2cnc3ccccc32)[C@H](O)[C@@H](O)[C@H]1O` gave a Ki (Cholinesterase [5]) of 782 µM.

Molecule `O=c1c2ccccc2n(CCCCCCn2cc(CO[C@@H]3O[C@H](CO)[C@@H](O)[C@H]3O)nn2)c2ccccc12` has a logP [6] of 2.68, an IC50 (Cholinesterase [7]) of 6.95 µM and a Ki (Cholinesterase [8]) of 1.76 µM. It also gave a Ratio IC50 (Homo sapiens) of 20.6 and an IC50 (Acetylcholinesterase [9]) of 143 µM.

`CC1(C)O[C@H]2[C@@H](O1)[C@@H](CNCCCCCCCCCCNc1c3c(nc4ccccc14)CCCC3)O[C@@H]1OC(C)(C)O[C@@H]12` showed an IC50 (Acetylcholinesterase [3]) of 0.0076 µM and an IC50 (Cholinesterase [4]) of 0.026 µM.

`CCCCCCCCCCCCNC(=O)[C@@H](OCc1ccccc1)[C@H]1OC(OC(C)=O)[C@H](OC(C)=O)[C@H]1OCc1ccccc1` (some centres undefined) showed a Ki (Acetylcholinesterase [1]) greater than 100 µM.

In the case of `OC[C@H]1O[C@@H](OCCN2CN(Cc3ccccc3)c3ccccc32)[C@H](O)[C@@H](O)[C@@H]1O`, the Ki (Cholinesterase [5]) is reported as 52 µM.

For `CC1(C)O[C@H]2O[C@H](NCCCCCCCNc3c4c(nc5ccccc35)CCCC4)[C@H](O)[C@H]2O1`, the IC50 (Acetylcholinesterase [3]) was 0.0087 µM and the IC50 (Cholinesterase [4]) was 0.027 µM.

For `COC1O[C@H](Cn2ccc(=O)n(C[C@H]3O[C@H](OC)[C@H](O)[C@@H](O)[C@@H]3O)c2=O)[C@@H](O)[C@H](O)[C@H]1O` (some centres undefined), the Ki (Acetylcholinesterase [1]) was 22.9 µM and the Ki (Cholinesterase [2]) was less than 100 µM.

Work on `CCCCCCCCCCCCNC(=O)[C@@H](OCc1ccccc1)[C@H]1O[C@H](n2cc(-c3ccccc3)nn2)[C@H](OC(C)=O)[C@H]1OCc1ccccc1` yielded a Ki (Acetylcholinesterase [1]) of 9.69 µM.

Molecule `CO[C@@H]1O[C@H](CNCCCCCCCCCNc2c3c(nc4ccccc24)CCCC3)[C@H]2OC(C)(C)O[C@@H]12` has an IC50 (Acetylcholinesterase [3]) of 0.09 µM and an IC50 (Cholinesterase [4]) of 0.037 µM.

`CC(=O)Nc1nc(Cl)c2ncn(C3O[C@H](C(=O)NCc4ccccc4)[C@@H](OC(C)=O)[C@@H](OC(C)=O)[C@H]3OC(C)=O)c2n1` (some centres undefined) gave a Ki (Acetylcholinesterase [10]) of 31 µM and a Ki (Cholinesterase [11]) greater than 100 µM.

For `CC1=C(CO[C@@H]2O[C@H](CO[C@@H]3O[C@H](CO)[C@@H](O)[C@H](O)[C@H]3O)[C@@H](O)[C@H](O)[C@H]2O)C(C)(C)CCC1`, the IC50 (Acetylcholinesterase [12]) was 3.2 µM.

Molecule `CCCCCCCC[Se]C[C@H]1OC(OC)[C@H](O)[C@H]1O` (some centres undefined) has an IC50 [13] of 210 µM.

Work on `O=c1c2ccccc2n(CCCCCCn2cc(CO[C@H]3C[C@H](O)[C@@H](CO)O3)nn2)c2ccccc12` yielded an IC50 (Cholinesterase [7]) of 42.8 µM and an IC50 (Acetylcholinesterase [9]) of 167 µM.

`CCCCCCCCCCCCNC(=O)[C@@H](OCc1ccccc1)[C@H]1O[C@@H](n2cc(-c3ccccc3)nn2)[C@H](OC(C)=O)[C@H]1OCc1ccccc1` showed a Ki (Acetylcholinesterase [1]) of 3.53 µM.

Work on `COc1ccc2c(c1)c(=O)c1ccccc1n2CCCCCCn1cc(CO[C@H]2C[C@H](O)[C@@H](CO)O2)nn1` yielded an IC50 (Cholinesterase [7]) of 35.4 µM and an IC50 (Acetylcholinesterase [9]) of 85.1 µM.

For `COc1cc([C@@H](O)[C@H](CO[C@@H]2O[C@H](CO)[C@@H](O)[C@H](O)[C@H]2O)Oc2ccc(CCCO)cc2OC)ccc1O`, the IC50 (Acetylcholinesterase [12]) was 0.75 µM.

`CCCCCCCCO[C@H]1[C@H](OC(C)=O)[C@@H](Cn2c(=O)c3c(ncn3C)n(C)c2=O)OC(OC(C)=O)[C@@H]1OC(C)=O` (some centres undefined) showed a Ki (Cholinesterase [14]) of 5.4 µM, an inhibition (Cholinesterase [15]) of 75.1% and an inhibition (Acetylcholinesterase [16]) of 66.5%.

`CCCCCCCCCCCCNC(=O)[C@@H](OCc1ccccc1)[C@H]1OC(OC(C)=O)[C@H](OC(C)=O)[C@H]1OC(C)=O` (some centres undefined) showed a Ki (Acetylcholinesterase [1]) greater than 100 µM.

With `CCCCCCCCCCCCNC(=O)[C@@H](OCc1ccccc1)[C@H]1OC(N=[N+]=[N-])[C@H](OC(C)=O)[C@H]1OC(C)=O` (some centres undefined) the Ki (Acetylcholinesterase [1]) was greater than 100 µM.
